The first assay has as its target T1, P2X7 receptor (Homo sapiens, UniProt Q99572).
T1 construct: host or cells: SH-SY5Y
T1 sequence (Q99572 1-595): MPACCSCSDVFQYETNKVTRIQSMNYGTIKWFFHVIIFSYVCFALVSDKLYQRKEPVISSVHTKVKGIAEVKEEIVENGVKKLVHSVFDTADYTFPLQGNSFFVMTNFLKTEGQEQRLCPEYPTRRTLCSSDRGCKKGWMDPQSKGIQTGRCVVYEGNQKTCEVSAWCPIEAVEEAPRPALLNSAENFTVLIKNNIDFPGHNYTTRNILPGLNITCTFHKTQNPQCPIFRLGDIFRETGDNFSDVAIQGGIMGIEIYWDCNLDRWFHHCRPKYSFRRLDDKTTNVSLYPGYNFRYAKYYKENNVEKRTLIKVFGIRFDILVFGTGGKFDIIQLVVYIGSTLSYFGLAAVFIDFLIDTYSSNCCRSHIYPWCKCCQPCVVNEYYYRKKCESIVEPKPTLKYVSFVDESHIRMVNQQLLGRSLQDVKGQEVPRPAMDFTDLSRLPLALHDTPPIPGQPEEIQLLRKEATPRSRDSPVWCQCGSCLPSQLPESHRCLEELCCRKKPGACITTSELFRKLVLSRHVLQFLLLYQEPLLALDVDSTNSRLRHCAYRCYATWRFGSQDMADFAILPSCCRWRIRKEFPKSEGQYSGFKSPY
The assay can be described thus: High throughput P2X7 calcium mobilization assay (Example 4A). The format is cell-based. Particulars: SH-SY5Y cells; 50% decrease in fluorescence response of cells exposed to 80 μM BzATP; Table I. The procedure, abridged: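 SH-SY5Y cells loaded with 2.3 μM Fluo-4 AM for 1 h at 37 °C, then preincubated 1 h at room temperature with test compound (final 1–2500 nM) in low-sodium sucrose buffer, pH 7.4. Antagonism measured against 80 μM BzATP (about EC50) as peak FLIPR calcium fluorescence over 2 min, corrected by no-agonist background.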
In general terms: Calcium assays in cells follow changes in intracellular calcium, usually with a dye or a luminescent sensor.
The IC50 is the point on the concentration scale where inhibition reaches its midpoint. For the compound `CC(C)CC(CNC(=O)c1sc(N2CC[C@@H](N(C)C)C2)nc1C(F)(F)F)c1ccc(C(F)(F)F)cc1` (stereo partly drawn) [Compound 163, 2-[(3R)-3-(dimethylamino)pyrrolidin-1-yl]-N-{4-methyl-2-[4-(trifluoromethyl)phenyl]pentyl}-4-(trifluoromethyl)-1,3-thiazole-5-carboxamide], the IC50 is at most 2000 nM.
Take `O=C(NCC12CC3CC(CC(C3)C1)C2)c1cn(-c2ncccn2)nc1C1CC1` [Compound 145, N-(adamantan-1-ylmethyl)-3-cyclopropyl-1-pyrimidin-2-yl-1H-pyrazole-4-carboxamide]: the IC50 was at most 2000 nM.
For the compound `CC(CNC(=O)c1cn(-c2ncc(F)c(N)n2)nc1C(F)(F)F)c1ccc(Cl)cc1` (centres unmarked) [Compound 149, 1-(4-amino-5-fluoropyrimidin-2-yl)-N-[2-(4-chlorophenyl)propyl]-3-(trifluoromethyl)-1H-pyrazole-4-carboxamide], the IC50 was at most 2000 nM.
Still for that read-out and setting: the result for `Cc1cc(C(=O)NCC23CC4CC(CC(C4)C2)C3)n(C)n1` [Compound 46, N-(adamantan-1-ylmethyl)-1,3-dimethyl-1H-pyrazole-5-carboxamide] reads at most 2000 nM; that for `O=C(NCC(c1ccc(Cl)cc1)N1CCOCC1)c1sc(-c2ncccn2)nc1C(F)(F)F` (centres unmarked) [Compound 314, N-[2-(4-chlorophenyl)-2-morpholin-4-ylethyl]-2-pyrimidin-2-yl-4-(trifluoromethyl)-1,3-thiazole-5-carboxamide], at most 2000 nM.
Same read-out and setting: the result for `Cc1nn(-c2cccc(N)n2)cc1C(=O)NCC12CC3CC(CC(C3)C1)C2` [Compound 59, N-(adamantan-1-ylmethyl)-1-(6-aminopyridin-2-yl)-3-methyl-1H-pyrazole-4-carboxamide] reads at most 2000 nM.
The same measure, in the same setting: the result for `Cc1nc(Sc2nccn2C)c(C(=O)NCC23CC4CC(CC(C4)C2)C3)s1` [Compound 69, N-(adamantan-1-ylmethyl)-2-methyl-4-[(1-methyl-1H-imidazol-2-yl)thio]-1,3-thiazole-5-carboxamide] reads at most 2000 nM; that for `Cc1ccc(C2(CNC(=O)c3cn(-c4ncc(F)c(N)n4)nc3C(F)(F)F)CCCCC2)cn1` [Compound 138, 1-(4-amino-5-fluoropyrimidin-2-yl)-N-{[1-(6-methylpyridin-3-yl)cyclohexyl]methyl}-3-(trifluoromethyl)-1H-pyrazole-4-carboxamide], at most 2000 nM.
Take `Nc1nccnc1-n1cc(C(=O)NCC23CC4CC(CC(C4)C2)C3)c(C(F)(F)F)n1` [Compound 147, N-(adamantan-1-ylmethyl)-1-(3-aminopyrazin-2-yl)-3-(trifluoromethyl)-1H-pyrazole-4-carboxamide]: the IC50 is at most 2000 nM.
`O=C(NCC12CC3CC(CC(C3)C1)C2)c1ccc(Br)s1` [Compound 76, N-(1-adamantylmethyl)-5-bromothiophene-2-carboxamide]: the IC50 is at most 2000 nM.
The same measure, in the same setting: the result for `Nc1nc(-n2cc(C(=O)NCC3(c4ccc(Cl)cc4)CCC3)c(C(F)(F)F)n2)ncc1F` [Compound 167, 1-(4-amino-5-fluoropyrimidin-2-yl)-N-{[1-(4-chlorophenyl)cyclobutyl]methyl}-3-(trifluoromethyl)-1H-pyrazole-4-carboxamide] reads at most 2000 nM; that for `Cc1nn(-c2ncc(F)c(N)n2)cc1C(=O)NCC12CC3CC(CC(C3)C1)C2` [Compound 110, N-(adamantan-1-ylmethyl)-1-(4-amino-5-fluoropyrimidin-2-yl)-3-methyl-1H-pyrazole-4-carboxamide], at most 2000 nM; that for `Cc1ccc(C2(CNC(=O)c3sc(-c4ncccn4)nc3C(F)(F)F)CCCCC2)cn1` [Compound 158, N-{[1-(6-methylpyridin-3-yl)cyclohexyl]methyl}-2-pyrimidin-2-yl-4-(trifluoromethyl)-1,3-thiazole-5-carboxamide], at most 2000 nM.
Still for that read-out and setting: the result for `CCc1nc(-c2ncccn2)sc1C(=O)NCC12CC3CC(CC(C3)C1)C2` [Compound 247, N-(adamantan-1-ylmethyl)-4-ethyl-2-pyrimidin-2-yl-1,3-thiazole-5-carboxamide] reads at most 2000 nM; that for `CCC(CNC(=O)c1cn(-c2ncccn2)nc1C(F)(F)F)c1ccccc1` (centres unmarked) [Compound 207, N-(2-phenylbutyl)-1-pyrimidin-2-yl-3-(trifluoromethyl)-1H-pyrazole-4-carboxamide], at most 2000 nM.
Still for that read-out and setting: the result for `CC(C)CC(CNC(=O)c1sc(-c2ncccn2)nc1C(F)(F)F)c1cccnc1` (centres unmarked) [Compound 320, N-(4-methyl-2-pyridin-3-ylpentyl)-2-pyrimidin-2-yl-4-(trifluoromethyl)-1,3-thiazole-5-carboxamide] reads at most 2000 nM; that for `CCc1nccnc1-n1cc(C(=O)NCC2(c3cccnc3)CCCCC2)c(C(F)(F)F)n1` [Compound 188, 1-(3-ethylpyrazin-2-yl)-N-[(1-pyridin-3-ylcyclohexyl)methyl]-3-(trifluoromethyl)-1H-pyrazole-4-carboxamide], at most 2000 nM.
Take `Cc1cnc(-n2cc(C(=O)NCC3(c4cccnc4)CCCCC3)c(C(F)(F)F)n2)nc1N` [Compound 156, 1-(4-amino-5-methylpyrimidin-2-yl)-N-[(1-pyridin-3-ylcyclohexyl)methyl]-3-(trifluoromethyl)-1H-pyrazole-4-carboxamide]: the IC50 was at most 2000 nM.
On the same count and under the same terms, then `CSc1ccc(C(=O)NCC23CC4CC(CC(C4)C2)C3)s1` [Compound 75, N-(1-adamantylmethyl)-5-(methylthio)thiophene-2-carboxamide], with at most 2000 nM.
On to `Cc1ccsc1C(=O)NCC12CC3CC(CC(C3)C1)C2` [Compound 73, N-(1-adamantylmethyl)-3-methylthiophene-2-carboxamide], for which the IC50 was at most 2000 nM.
Consider `Cc1nn(-c2nccnc2N)cc1C(=O)NCC(CC(C)C)c1ccc(C(F)(F)F)cc1` (centres unmarked) [Compound 179, 1-(3-aminopyrazin-2-yl)-3-methyl-N-{4-methyl-2-[4-(trifluoromethyl)phenyl]pentyl}-1H-pyrazole-4-carboxamide], for which the IC50 was at most 2000 nM.
The same measure, in the same setting: then `Cc1csc(C(=O)NCC23CC4CC(CC(C4)C2)C3)c1Cl` [Compound 87, N-(adamantan-1-ylmethyl)-3-chloro-4-methylthiophene-2-carboxamide], with at most 2000 nM; and `CC(C)c1nn(-c2ncc(F)c(N)n2)cc1C(=O)NCC12CC3CC(CC(C3)C1)C2` [Compound 126, N-(adamantan-1-ylmethyl)-1-(4-amino-5-fluoropyrimidin-2-yl)-3-isopropyl-1H-pyrazole-4-carboxamide], with at most 2000 nM; and `CC(C)CCNC(=O)c1cn(-c2ncccn2)nc1C(F)(F)F` [Compound 206, N-(3-methylbutyl)-1-pyrimidin-2-yl-3-(trifluoromethyl)-1H-pyrazole-4-carboxamide], with at most 2000 nM.
Same read-out and setting: then `Cc1nc(-c2ncccn2)sc1C(=O)NCC(CC(C)C)c1ccc(C(F)(F)F)cc1` (centres unmarked) [Compound 290, 4-methyl-N-{4-methyl-2-[4-(trifluoromethyl)phenyl]pentyl}-2-pyrimidin-2-yl-1,3-thiazole-5-carboxamide], with at most 2000 nM; and `CC(C)CC(CNC(=O)c1cn(-c2ncccn2)nc1C(F)(F)F)c1ccc(C(F)(F)F)cc1` (centres unmarked) [Compound 200, N-{4-methyl-2-[4-(trifluoromethyl)phenyl]pentyl}-1-pyrimidin-2-yl-3-(trifluoromethyl)-1H-pyrazole-4-carboxamide], with at most 2000 nM.
On to `O=C(NCC1(N2CCOCC2)CCCCC1)c1cn(-c2ncccn2)nc1C(F)(F)F` [Compound 198, N-[(1-morpholin-4-ylcyclohexyl)methyl]-1-pyrimidin-2-yl-3-(trifluoromethyl)-1H-pyrazole-4-carboxamide], for which the half-maximal inhibitory concentration (IC50) was at most 2000 nM.
Same read-out and setting: then `CCc1nc(-c2cccnc2)sc1C(=O)NCC1(c2cccnc2)CCCCC1` [Compound 166, 4-ethyl-2-pyridin-3-yl-N-[(1-pyridin-3-ylcyclohexyl)methyl]-1,3-thiazole-5-carboxamide], with at most 2000 nM.
For the compound `Cc1nn(-c2cnccn2)cc1C(=O)NCC1(c2ccc(C(F)(F)F)cc2)CCCCC1` [Compound 184, 3-methyl-1-pyrazin-2-yl-N-({1-[4-(trifluoromethyl)phenyl]cyclohexyl}methyl)-1H-pyrazole-4-carboxamide], the IC50 is at most 2000 nM.

The same assay, now with this note: SH-SY5Y cells; 50% decrease in fluorescence response of cells exposed to 80 μM BzATP; flag after the MS data in Examples 1-2.
Consider `Nc1nn(-c2ncccn2)cc1C(=O)NCC12CC3CC(CC(C3)C1)C2` [Compound 6, N-(Adamantan-1-ylmethyl)-3-amino-1-pyrimidin-2-yl-1H-pyrazole-4-carboxamide], for which the IC50 was at most 2000 nM.
For the compound `Nc1nc(-n2cc(C(=O)NCC34CC5CC(CC(C5)C3)C4)c(C(F)(F)F)n2)ncc1F` [Compound 1, N-(Adamantan-1-ylmethyl)-1-(4-amino-5-fluoropyrimidin-2-yl)-3-(trifluoromethyl)-1H-pyrazole-4-carboxamide], the IC50 is at most 2000 nM.
Consider `Cc1ccc(C(CNC(=O)c2sc(-c3cccnc3)nc2C)CC(C)C)cc1` (centres unmarked) [Compound 33, N-[4-methyl-2-(4-methylphenyl)pentyl}-4-methyl-2-pyridin-3-yl-1,3-thiazole-5-carboxamide], for which the IC50 is at most 2000 nM.

These data come from patent US9133204B2, “5-membered heterocyclic amides and related compounds” (H. Lundbeck A/S, priority 2007, dated 2015).
